Legend:
[1] = target: T1, Arachidonate 5-lipoxygenase-activating protein (Homo sapiens, UniProt P20292); test: The compound was tested for the inhibition of binding of [125I]- L- 691,831 binding to 5-lipoxygenase activating protein (FLAP)
T1 sequence (P20292 whole entry): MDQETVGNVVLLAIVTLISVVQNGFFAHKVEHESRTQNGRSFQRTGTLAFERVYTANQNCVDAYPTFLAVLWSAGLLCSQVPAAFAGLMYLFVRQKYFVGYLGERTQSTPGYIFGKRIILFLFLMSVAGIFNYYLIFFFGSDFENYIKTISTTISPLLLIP

Homo sapiens [2] = species: Homo sapiens; test: Leukotriene synthesis inhibition activity in the Human PMN assay; format: functional, organism-based
Homo sapiens [3] = species: Homo sapiens; test: Leukotriene synthesis inhibition activity in the Human whole blood assay; format: functional, organism-based
[4] = target: T1, Arachidonate 5-lipoxygenase-activating protein; test: The compound was tested for the inhibition of binding of [125I]- L- 691,831 binding to 5-lipoxygenase activating protein

IC50 [1] [nM]	IC50 (Homo sapiens [2]; Homo sapiens) [nM]	IC50 (Homo sapiens [3]) [nM]	IC50 (Homo sapiens [2]) [nM]	SMILES	also measured
4				O=C(O)CSC(CCCc1ccccc1)(CCc1ccccc1)c1ccc(OCc2ccc3ccccc3n2)cc1 (stereo not given)	
	30			c1ccc(COCC(OCc2ccccc2)c2ccc(OCc3ccc4ccccc4n3)cc2)cc1 (stereo not given)	
	3			Cc1c(CC(C)(C)C(=O)O)n(Cc2ccc(Cl)cc2)c2ccc(OCc3ccc4ccccc4n3)cc12	
	870			COc1ccc2c(c1)c(C)c(CC(C)(C)C(=O)O)n2Cc1ccc(Cl)cc1	
			5	O=C(O)CSC(CCCc1ccc(Cl)cc1)c1ccc(OCc2ccc3ccccc3n2)cc1 (single isomer, unassigned; (+))	
			10	O=C(O)CSC(CCCc1ccc(Cl)cc1)c1ccc(OCc2ccc3ccccc3n2)cc1 (single isomer, unassigned; (-))	
122		> 22000	20	O=C(O)CSC(CCCc1ccc(Cl)cc1)c1ccc(OCc2ccc3ccccc3n2)cc1 (stereo in doubt; 1)	
	3	500		CC(C)(C)Sc1c(CC(C)(C)C(=O)O)n(Cc2ccc(Cl)cc2)c2ccc(OCc3ccc4ccccc4n3)cc12 [QUIFLAPON]	IC50 [4]: 2 nM

SMILES	IC50 [1] [nM]	IC50 (Homo sapiens [2]; Homo sapiens) [nM]	IC50 (Homo sapiens [3]) [nM]	IC50 (Homo sapiens [2]) [nM]	also measured
CC(C)c1ccc2c(c1)c(SC(C)(C)C)c(CC(C)(C)C(=O)O)n2Cc1ccc(Cl)cc1	23	3	2100		

— ChEMBL document CHEMBL1126364, “A new class of leukotriene biosynthesis inhibitors: The discovery of MK0591” (Bioorg Med Chem Lett, 1992)
